Measured values as given in the NIST ThermoML archive (doi:10.1021/je200854k).

Details: Liquid, Capillary tube (Ostwald / Ubbelohde) method

FCC(F)(F)F [1,1,1,2-tetrafluoroethane]
viscosity [mPa·s]
Details	1000 kPa	2000 kPa	5000 kPa	10000 kPa	15000 kPa	20000 kPa	25000 kPa	30000 kPa	35000 kPa	40000 kPa
258.15 K	0.3251	–	0.3468	0.3675	0.3885	0.4094	0.4309	0.4502	0.4712	0.4996
278.14 K	0.2536	–	0.2678	0.2859	0.3033	0.3209	0.3381	0.3543	0.3712	0.3885
298.14 K	0.1962	–	0.2108	0.2273	0.2421	0.2567	0.2716	0.2876	0.3017	0.3169
318.13 K	–	0.1549	0.1656	0.1828	0.197	0.2111	0.2254	0.2393	0.2511	0.2647
338.13 K	–	0.1152	0.1288	0.1466	0.1618	0.1754	0.1893	0.2007	–	–

FC(F)(F)CC(F)(F)F [1,1,1,3,3,3-hexafluoropropane]
viscosity [mPa·s]
Details	1000 kPa	2000 kPa	5000 kPa	10000 kPa	15000 kPa	20000 kPa	25000 kPa	30000 kPa	35000 kPa	40000 kPa
253.15 K	0.5347	–	0.5621	0.5982	0.6363	0.671	0.7092	0.751	0.7898	0.8347
263.16 K	0.4612	–	0.4857	0.5184	0.5511	0.583	0.6154	0.6508	0.6835	0.7189
273.14 K	0.3999	–	0.4237	0.452	0.4821	0.5127	0.5412	0.5699	0.6012	0.6317
283.14 K	0.35	–	0.3722	0.3989	0.4259	0.4534	0.4798	0.5054	0.5325	0.5603
293.14 K	0.3074	–	0.3281	0.3534	0.3789	0.4034	0.4271	0.452	0.4757	0.5014
303.14 K	0.2708	–	0.2906	0.3141	0.3383	0.362	0.3838	0.4053	0.429	0.4513
313.14 K	0.2385	–	0.2585	0.2817	0.3041	0.3268	0.3467	0.3678	0.3897	0.41
323.13 K	0.21	–	0.2306	0.253	0.2742	0.295	0.3155	0.3353	0.3544	0.3744
333.13 K	0.1844	–	0.2046	0.2274	0.2481	0.2683	0.2868	0.3059	0.3248	0.3434
343.13 K	–	0.1669	0.1825	0.2044	0.2255	0.2447	0.2631	0.2805	0.2994	0.3154
353.13 K	–	0.1456	0.1618	0.1858	0.2064	0.2239	0.2427	0.2591	0.2761	0.2925
363.14 K	–	0.1248	0.1432	0.1663	0.1863	0.2051	0.2226	0.2395	0.2555	0.2713
373.14 K	–	0.1074	0.1287	0.1531	0.1718	0.1886	0.2056	0.2222	0.2366	0.2495

FC(F)CC(F)(F)F [1,1,1,3,3-pentafluoropropane]
viscosity [mPa·s]
Details	1000 kPa	2000 kPa	5000 kPa	10000 kPa	15000 kPa	20000 kPa	25000 kPa	30000 kPa	35000 kPa	40000 kPa
263.15 K	0.679	–	0.7113	0.7526	0.7951	0.8369	0.8778	0.9236	0.9686	1.015
273.14 K	0.5811	–	0.6083	0.6456	0.6801	0.717	0.7534	0.7902	0.8293	0.8685
283.14 K	0.4999	–	0.5252	0.5564	0.5887	0.6204	0.6519	0.6847	0.7184	0.7497
293.14 K	0.4344	–	0.4571	0.4859	0.5143	0.5433	0.5704	0.5998	0.6291	0.6589
303.14 K	0.3799	–	0.4011	0.4282	0.4534	0.4796	0.5048	0.5306	0.5573	0.5829
313.14 K	0.3343	–	0.3538	0.379	0.4035	0.427	0.4502	0.4745	0.4975	0.5211
323.13 K	0.2952	–	0.3139	0.3372	0.3595	0.3816	0.4029	0.425	0.4464	0.4694
333.13 K	0.2601	–	0.2788	0.3009	0.3232	0.3433	0.3637	0.3837	0.4048	0.4241
343.13 K	0.2301	–	0.2484	0.2698	0.29	0.31	0.3304	0.3488	0.3686	0.3872
353.13 K	0.2053	–	0.2226	0.2428	0.2627	0.2819	0.2999	0.3186	0.3361	0.3537
363.14 K	–	0.1838	0.1972	0.219	0.2389	0.2561	0.2746	0.2918	0.3084	0.325
373.14 K	–	0.1612	0.1758	0.1977	0.2165	0.2346	0.2518	0.2679	0.2839	–

Cc1ccccc1 [toluene]
viscosity [mPa·s]
Details	248.16 K	273.15 K	298.14 K	323.13 K	348.13 K
1000 kPa	1.19	0.7764	0.5581	0.4252	0.3356
10000 kPa	1.285	0.8352	0.6005	0.4563	0.3616
20000 kPa	1.397	0.9052	0.644	0.4908	0.3907
30000 kPa	1.521	0.9742	0.6909	0.5267	0.4198
40000 kPa	–	1.045	0.7419	0.5662	0.4497
